Results as given in patent US20230055237A1, “COMPOUNDS AND METHODS FOR THE TREATMENT OF CYSTIC FIBROSIS” (Flatley Discovery Lab, LLC, priority 2019, published 2023).

Target: T1, CFTR (Homo sapiens, UniProt P13569, DEL508-508)
T1 construct: Primary CF airway epithelial cells were obtained from the UNC Cystic Fibrosis Tissue Procurement and Cell Culture Core; host or cells: primary CF airway epithelial cells, differentiated at the air-liquid interface
Assay: Equivalent current assay in primary CF airway epithelial cells (NAUC, combination with 1st site corrector FDL169 or VX-809)
Format: cell-based
Details: 37° C., 24 h

[1] = test compound 1 μM in combination with 1st site corrector VX-809 (3 μM)
[2] = test compound 3 μM in combination with 1st site corrector VX-809 (3 μM)
[3] = test compound 10 μM in combination with 1st site corrector VX-809 (3 μM)
[4] = test compound 1 μM in combination with 1st site corrector FDL169 (3 μM)
[5] = test compound 3 μM in combination with 1st site corrector FDL169 (3 μM)

T1 sequence (P13569 with tags, fused parts or gaps DEL508-508): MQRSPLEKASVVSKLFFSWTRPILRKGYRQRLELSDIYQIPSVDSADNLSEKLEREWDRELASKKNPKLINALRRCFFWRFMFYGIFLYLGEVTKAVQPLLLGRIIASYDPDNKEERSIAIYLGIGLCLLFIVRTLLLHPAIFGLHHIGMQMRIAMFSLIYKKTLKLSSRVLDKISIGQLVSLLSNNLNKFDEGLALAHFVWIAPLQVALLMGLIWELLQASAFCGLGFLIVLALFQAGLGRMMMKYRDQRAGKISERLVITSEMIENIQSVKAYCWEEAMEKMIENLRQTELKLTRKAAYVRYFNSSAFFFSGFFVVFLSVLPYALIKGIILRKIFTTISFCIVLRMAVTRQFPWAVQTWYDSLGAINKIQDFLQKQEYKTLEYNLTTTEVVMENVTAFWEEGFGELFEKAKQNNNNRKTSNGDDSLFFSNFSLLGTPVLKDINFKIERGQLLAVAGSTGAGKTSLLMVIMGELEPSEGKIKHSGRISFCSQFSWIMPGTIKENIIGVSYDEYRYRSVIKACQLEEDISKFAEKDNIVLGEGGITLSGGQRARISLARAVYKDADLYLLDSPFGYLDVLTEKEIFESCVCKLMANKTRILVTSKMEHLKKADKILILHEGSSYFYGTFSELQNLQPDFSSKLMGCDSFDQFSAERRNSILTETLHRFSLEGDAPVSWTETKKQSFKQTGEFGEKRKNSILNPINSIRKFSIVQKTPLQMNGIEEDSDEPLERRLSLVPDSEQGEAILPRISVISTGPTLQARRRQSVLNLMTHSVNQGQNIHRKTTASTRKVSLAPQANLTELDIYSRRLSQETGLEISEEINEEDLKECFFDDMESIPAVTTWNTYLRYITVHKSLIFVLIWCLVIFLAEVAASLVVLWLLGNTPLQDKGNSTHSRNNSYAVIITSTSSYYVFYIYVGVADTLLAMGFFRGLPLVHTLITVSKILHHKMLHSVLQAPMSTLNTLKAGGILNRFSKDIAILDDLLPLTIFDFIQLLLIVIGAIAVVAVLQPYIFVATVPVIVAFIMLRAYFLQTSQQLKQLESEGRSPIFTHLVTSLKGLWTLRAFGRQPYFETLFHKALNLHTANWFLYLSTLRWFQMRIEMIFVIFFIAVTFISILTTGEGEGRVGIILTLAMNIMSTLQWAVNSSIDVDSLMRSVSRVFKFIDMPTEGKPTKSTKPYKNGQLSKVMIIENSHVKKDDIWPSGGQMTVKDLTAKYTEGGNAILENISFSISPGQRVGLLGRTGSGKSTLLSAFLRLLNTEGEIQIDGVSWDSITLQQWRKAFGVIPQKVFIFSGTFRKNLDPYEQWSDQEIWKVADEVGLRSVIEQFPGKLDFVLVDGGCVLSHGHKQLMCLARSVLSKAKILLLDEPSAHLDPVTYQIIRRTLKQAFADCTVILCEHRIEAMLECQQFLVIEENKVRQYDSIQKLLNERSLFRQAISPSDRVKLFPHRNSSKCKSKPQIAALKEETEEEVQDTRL

SMILES | Nauc @ 1 μM [1] | Nauc @ 3 μM [2] | Nauc @ 10 μM [3] | Nauc @ 1 μM [4] | Nauc @ 3 μM [5] | Nauc @ 10 μM (test compound 10 μM in combination with 1st site corrector FDL169 (3 μM))
Cn1nccc1NC(=O)[C@H]1[C@@H](C(=O)Nc2cc(Cl)cc(Cl)c2)[C@H]2CCCN2[C@]12C(=O)Nc1c(Cl)cc(Cl)cc12 (single isomer, unassigned) [Example 239, (1′R,2′ S,7a′R)-5,7-dichloro-N1′-(3,5-dichlorophenyl)-N2′-(1-methyl-1H-pyrazol-5-yl)-2-oxo-1′,2′,5′,6′,7′,7a′-hexahydrospiro[indoline-3,3′-pyrrolizine]-1′,2′-dicarboxamide] | + (NAUC “+” refers to an observed NAUC <140% of positive control) | + (NAUC “+” refers to an observed NAUC <140% of positive control) | + (NAUC “+” refers to an observed NAUC <140% of positive control) |  |  | 
O=C(Nc1ccc2scnc2c1)[C@H]1[C@H]2CC(F)(F)CN2[C@]2(C(=O)Nc3c(Cl)cc(Cl)cc32)[C@H]1C(=O)O [Example 128] | + (NAUC “+” refers to an observed NAUC <140% of positive control) | + (NAUC “+” refers to an observed NAUC <140% of positive control) |  |  |  | 
CC(=O)N1C(COCc2ccccc2)C(C(=O)Nc2cc(Cl)cc(Cl)c2)C(C(=O)O)C12C(=O)Nc1c(Cl)cc(Cl)cc12 (stereo not drawn) [Example 36] |  | + (NAUC “+” refers to an observed NAUC <140% of positive control) | +++ (NAUC “+++” refers to an observed NAUC>170% of positive control) |  |  | 
CC(C)(C)c1cccc(CNC(=O)C2C3CC(F)(F)CN3C3(C(=O)Nc4c(Cl)cc(Cl)cc43)C2C(=O)O)c1 (stereo not drawn) [Example 54] |  | + (NAUC “+” refers to an observed NAUC <140% of positive control) | +++ (NAUC “+++” refers to an observed NAUC>170% of positive control) |  |  | 
CN(O)C(=O)C1C(C(=O)Nc2cc(Cl)cc(Cl)c2)C2CCCN2C12C(=O)Nc1c(Cl)cc(Cl)cc12 (single isomer, unassigned) [Example 235a, 5,7-dichloro-N1′-(3,5-dichlorophenyl)-N2′-hydroxy-N2′-methyl-2-oxo-1′,2′,5′,6′,7′,7a′-hexahydrospiro[indoline-3,3′-pyrrolizine]-1′,2′-dicarboxamide] | ++ (NAUC “++” refers to an observed NAUC 170-140% of positive control) | +++ (NAUC “+++” refers to an observed NAUC>170% of positive control) | +++ (NAUC “+++” refers to an observed NAUC>170% of positive control) |  |  | 
O=C(Nc1cc(Cl)cc(Cl)c1)C1C(C(F)(F)c2cccc(Cl)c2)NC2(C(=O)Nc3c(Cl)cc(Cl)cc32)C1C(=O)O (stereo not drawn) [Example 68.c] | + (NAUC “+” refers to an observed NAUC <140% of positive control) | +++ (NAUC “+++” refers to an observed NAUC>170% of positive control) | +++ (NAUC “+++” refers to an observed NAUC>170% of positive control) |  |  | 
Cn1cc(N(CC2CC2)C(=O)[C@H]2[C@H]3CC(F)(F)CN3[C@]3(C(=O)Nc4c(Cl)cc(Cl)cc43)[C@H]2C(=O)O)c(C#N)n1 [Example 168] |  |  |  | + (NAUC “+” refers to an observed NAUC <140% of positive control) | + (NAUC “+” refers to an observed NAUC <140% of positive control) | 
O=C(Nc1cc(Cl)cc(Cl)c1)C1C(C(F)(F)c2ccccc2)NC2(C(=O)Nc3c(Cl)cc(Cl)cc32)C1C(=O)O (stereo not drawn) [Example 39] |  | +++ (NAUC “+++” refers to an observed NAUC>170% of positive control) | +++ (NAUC “+++” refers to an observed NAUC>170% of positive control) |  |  | 
CN(O)C(=O)[C@@H]1[C@@H](C(=O)N(C)c2cc(Cl)cc(Cl)c2)[C@H]2CC(F)(F)CN2[C@]12C(=O)Nc1c(Cl)cc(Cl)cc12 [Example 260b, (1′R,2′R,3R,7a′R)-5,7-dichloro-N1′-(3,5-dichlorophenyl)-6′,6′-difluoro-N2′-hydroxy-N1′,N2′-dimethyl-2-oxo-1′,2′,5′,6′,7′,7a′-hexahydrospiro[indoline-3,3′-pyrrolizine]-1′,2′-dicarboxamide] | + (NAUC “+” refers to an observed NAUC <140% of positive control) | + (NAUC “+” refers to an observed NAUC <140% of positive control) | + (NAUC “+” refers to an observed NAUC <140% of positive control) |  |  | 
CC(C)(C)c1cccc(C2CC2NC(=O)[C@H]2[C@H]3CC(F)(F)CN3C3(C(=O)Nc4c(Cl)cc(Cl)cc43)[C@H]2C(=O)O)c1 (stereo partly drawn) [Example 272] | + (NAUC “+” refers to an observed NAUC <140% of positive control) | + (NAUC “+” refers to an observed NAUC <140% of positive control) | ++ (NAUC “++” refers to an observed NAUC 170-140% of positive control) |  |  | 
CN(C)S(=O)(=O)NC(=O)C1C(C(=O)Nc2cc(Cl)cc(Cl)c2)C2C[C@](C)(O)CN2C12C(=O)Nc1c(Cl)cc(Cl)cc12 (stereo partly drawn) [Example 248, (6′S)-5,7-dichloro-N1′-(3,5-dichlorophenyl)-N2′-(N,N-dimethylsulfamoyl)-6′-hydroxy-6′-methyl-2-oxo-1′,2′,5′,6′,7′,7a′-hexahydrospiro[indoline-3,3′-pyrrolizine]-1,2′-dicarboxamide] | + (NAUC “+” refers to an observed NAUC <140% of positive control) | +++ (NAUC “+++” refers to an observed NAUC>170% of positive control) | +++ (NAUC “+++” refers to an observed NAUC>170% of positive control) |  |  | 
O=C(O)[C@H]1[C@@H](C(=O)N(c2cc(Cl)cc(Cl)c2)C2CC(O)C2)[C@H]2CC(F)(F)CN2[C@]12C(=O)Nc1c(Cl)cc(Cl)cc12 (stereo partly drawn) [Example 159] |  |  |  | + (NAUC “+” refers to an observed NAUC <140% of positive control) | + (NAUC “+” refers to an observed NAUC <140% of positive control) | 
O=C(Nc1cncc(C(F)(F)F)n1)C1C2C[C@@](O)(C(F)(F)F)CN2C2(C(=O)Nc3c(Cl)cc(Cl)cc32)C1C(=O)O (single isomer, unassigned) [Example 75.a] |  |  | + (NAUC “+” refers to an observed NAUC <140% of positive control) |  |  | 
O=C(Nc1cncc(C(F)(F)F)n1)C1C2CCCN2C2(C(=O)Nc3c(Cl)cc(Cl)cc32)C1C(=O)O (stereo not drawn) [Example 29] |  | ++ (NAUC “++” refers to an observed NAUC 170-140% of positive control) | +++ (NAUC “+++” refers to an observed NAUC>170% of positive control) |  |  | 
COc1c(Cl)cc(NC(=O)C2C3CC(F)(F)CN3C3(C(=O)Nc4c(Cl)cc(Cl)cc43)C2C(=O)O)cc1Cl (stereo not drawn) [Example 9] |  | +++ (NAUC “+++” refers to an observed NAUC>170% of positive control) | +++ (NAUC “+++” refers to an observed NAUC>170% of positive control) |  |  | 
O=C(O)[C@H]1[C@@H](C(=O)N(CC2CCCCCC2)c2cc(Cl)cc(Cl)c2)[C@H]2CC(F)(F)CN2[C@]12C(=O)Nc1c(Cl)cc(Cl)cc12 [Example 178] |  |  |  | +++ (NAUC “+++” refers to an observed NAUC>170% of positive control) | +++ (NAUC “+++” refers to an observed NAUC>170% of positive control) | ++ (NAUC “++” refers to an observed NAUC 170-140% of positive control)
O=C(Nc1cc(Cl)cc(Cl)c1F)C1C2CCCN2C2(C(=O)Nc3c(Cl)cc(Cl)cc32)C1C(=O)O (stereo not drawn) [Example 37] |  | +++ (NAUC “+++” refers to an observed NAUC>170% of positive control) | +++ (NAUC “+++” refers to an observed NAUC>170% of positive control) |  |  | 
CN(C(=O)C1C2CC(F)(F)CN2C2(C(=O)Nc3c(Cl)cc(Cl)cc32)C1C(=O)O)c1cc(C(F)(F)F)cc(C(F)(F)F)n1 (single isomer, unassigned) [Example 273a, 1′-((4,6-bis(trifluoromethyl)pyridin-2-yl)(methyl)carbamoyl)-5,7-dichloro-6′,6′-difluoro-2-oxo-1′,2′,5′,6′,7′,7a′-hexahydrospiro[indoline-3,3′-pyrrolizine]-2′-carboxylic acid] |  |  |  | + (NAUC “+” refers to an observed NAUC <140% of positive control) | + (NAUC “+” refers to an observed NAUC <140% of positive control) | 
CN(C(=O)[C@H]1[C@H]2CC(F)(F)CN2C2(C(=O)Nc3c(Cl)cc(Cl)cc32)[C@H]1C(=O)O)c1cc(Cl)c(OC(F)F)c(Cl)c1 (stereo partly drawn) [Example 290] | ++ (NAUC “++” refers to an observed NAUC 170-140% of positive control) | +++ (NAUC “+++” refers to an observed NAUC>170% of positive control) | +++ (NAUC “+++” refers to an observed NAUC>170% of positive control) |  |  | 
CN(C(=O)C1C2CC(F)(F)CN2C2(C(=O)Nc3c(Cl)cc(Cl)cc32)C1C(=O)O)c1cc(Cl)cc(Cl)c1 (stereo not drawn) [Example 57] |  | +++ (NAUC “+++” refers to an observed NAUC>170% of positive control) | +++ (NAUC “+++” refers to an observed NAUC>170% of positive control) |  |  | 
CN(C(=O)[C@H]1[C@H]2CC(F)(F)CN2[C@]2(C(=O)Nc3c(Cl)cc(Cl)cc32)[C@H]1C(=O)NS(C)(=O)=O)c1cc(Cl)cc(Cl)c1 (relative stereo) [Example 231, rel-(1′R,2′S,3R,7a′R)-5,7-dichloro-N1′-(3,5-dichlorophenyl)-6′,6′-difluoro-N1′-methyl-N2′-(methylsulfonyl)-2-oxo-1′,2′,5′,6′,7′,7a′-hexahydrospiro[indoline-3,3′-pyrrolizine]-1′,2′-dicarboxamide] |  |  | + (NAUC “+” refers to an observed NAUC <140% of positive control) |  |  | 
O=C(Nc1ccccc1-c1ccccc1)[C@H]1[C@H]2CC(F)(F)CN2[C@]2(C(=O)Nc3c(Cl)cc(Cl)cc32)[C@H]1C(=O)O [Example 121] | +++ (NAUC “+++” refers to an observed NAUC>170% of positive control) | +++ (NAUC “+++” refers to an observed NAUC>170% of positive control) | ++ (NAUC “++” refers to an observed NAUC 170-140% of positive control) |  |  | 
